Patent US11986532B2 (Arvinas Operations, Inc., priority 2021, dated 2024)
Like-named read-outs stand apart in the source and are kept apart here.

Molecular target: T1, BCL6 (Homo sapiens, UniProt P41182)
T1 construct: endogenous in cells; host or cells: T47D breast cancer epithelial cells
Assay: Immunofluorescence protocol for high content imaging of BCL6 (degradation) in T47D cells, 3 days compound treatment
Assay type: cell-based
Conditions: for DC50: read-out: Mean DC50 (nM)* category; for Dmax: read-out: Mean Dmax (%)** category
In short: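 For degradation, compound series (3-fold, 11 points, top 0.1 or 1 μM final) were added to adherent T47D cultures for 3 days. BCL6 immunostaining used a rabbit antibody at 1:300 and an Alexa-488 secondary, with imaging at 10× magnification.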

[1] = T47D cells, 3 days compound treatment

SMILES	DC50 [1] [nM]	Dmax [1] [%]	Dmax (T47D) [%]	DC50 [nM]
CNC(=O)COc1cc2cc(Nc3nc(N4CCC(C(C)(C)N5CC6(CCN(c7cccc8c7CN(C7CCC(=O)NC7=O)C8=O)CC6)C5)CC4)ncc3Cl)ccc2n(C(C)C)c1=O (stereo not shown) [Compound 8, 2-{[6-({5-chloro-2-[4-(2-{7-[2-(2,6-dioxopiperidin-3-yl)-1-oxo-2,3-dihydro-1H-isoindol-4-yl]-2,7-diazaspiro[3.5]nonan-2-yl}propan-2-yl)piperidin-1-yl]pyrimidin-4-yl}amino)-2-oxo-1-(propan-2-yl)-1,2-dihydroquinolin-3-yl]oxy}-N-methylacetamide]	< 10	≥ 70	–	–
CNC(=O)COc1cc2cc(Nc3nc(N4CCC(CN5CCC6(CN(c7cccc8c7CN(C7CCC(=O)NC7=O)C8=O)C6)C(F)C5)CC4)ncc3Cl)ccc2n(C(C)C)c1=O (stereo not shown) [Compound 326, 2-{[6-({5-chloro-2-[4-({2-[2-(2,6-dioxopiperidin-3-yl)-1-oxo-2,3-dihydro-1H-isoindol-4-yl]-5-fluoro-2,7-diazaspiro[3.5]nonan-7-yl}methyl)piperidin-1-yl]pyrimidin-4-yl}amino)-2-oxo-1-(propan-2-yl)-1,2-dihydroquinolin-3-yl]oxy}-N-methylacetamide]	–	–	≥ 70	< 10
CNC(=O)COc1cc2cc(Nc3nc(N4CCC(OC5CCC6(CC5)CN(c5ccc(OC)c7c5CN(C5CCC(=O)NC5=O)C7=O)C6)CC4)ncc3Cl)ccc2n(C(C)C)c1=O (stereo not shown) [Compound 304, 2-{[6-({5-chloro-2-[4-({2-[2-(2,6-dioxopiperidin-3-yl)-7-methoxy-1-oxo-2,3-dihydro-1H-isoindol-4-yl]-2-azaspiro[3.5]nonan-7-yl}oxy)piperidin-1-yl]pyrimidin-4-yl}amino)-2-oxo-1-(propan-2-yl)-1,2-dihydroquinolin-3-yl]oxy}-N-methylacetamide]	–	–	50 to 70	< 10
CNC(=O)COc1cc2cc(Nc3nc(N4CCC(F)(CN5CCC6(CC5)CCN(c5cccc7c5CN(C5CCC(=O)NC5=O)C7=O)CC6)CC4)ncc3Cl)ccc2n(C(C)C)c1=O (stereo not shown) [Compound 82, 2-{[6-({5-chloro-2-[4-({9-[2-(2,6-dioxopiperidin-3-yl)-1-oxo-2,3-dihydro-1H-isoindol-4-yl]-3,9-diazaspiro[5.5]undecan-3-yl}methyl)-4-fluoropiperidin-1-yl]pyrimidin-4-yl}amino)-2-oxo-1-(propan-2-yl)-1,2-dihydroquinolin-3-yl]oxy}-N-methylacetamide]	< 10	≥ 70	–	–
CNC(=O)COc1cc2cc(Nc3nc(N4CCC(O[C@H]5C[C@H](N6CCC(c7ccc8c(c7F)CN([C@H]7CCC(=O)NC7=O)C8=O)CC6)C5)CC4)ncc3Cl)ccc2n(C(C)C)c1=O [Compound 385, 2-({6-[(5-chloro-2-{4-[(1r,3r)-3-(4-{2-[(3S)-2,6-dioxopiperidin-3-yl]-4-fluoro-1-oxo-2,3-dihydro-1H-isoindol-5-yl}piperidin-1-yl)cyclobutoxy]piperidin-1-yl}pyrimidin-4-yl)amino]-2-oxo-1-(propan-2-yl)-1,2-dihydroquinolin-3-yl}oxy)-N-methylacetamide]	–	–	50 to 70	< 10
CNC(=O)COc1cc2c(F)c(Nc3nc(N4CCC(O[C@H]5C[C@H](N6CCC(c7ccc8c(c7C)C(=O)N(C7CCC(=O)NC7=O)C8=O)CC6)C5)CC4)ncc3Cl)ccc2n(C(C)C)c1=O (stereo partly shown) [Compound 419, 2-({6-[(5-chloro-2-{4-[(1r,3r)-3-{4-[2-(2,6-dioxopiperidin-3-yl)-4-methyl-1,3-dioxo-2,3-dihydro-1H-isoindol-5-yl]piperidin-1-yl}cyclobutoxy]piperidin-1-yl}pyrimidin-4-yl)amino]-5-fluoro-2-oxo-1-(propan-2-yl)-1,2-dihydroquinolin-3-yl}oxy)-N-methylacetamide]	–	–	≥ 70	< 10
CNC(=O)COc1cc2cc(Nc3nc(N4CCC(O[C@H]5C[C@H](N6CC[C@H](c7ccc8c(c7F)CN([C@H]7CCC(=O)NC7=O)C8=O)C[C@@H]6C)C5)CC4)ncc3Cl)ccc2n(C(C)C)c1=O [Compound 293, 2-({6-[(5-chloro-2-{4-[(1r,3r)-3-[(2S,4S)-4-{2-[(3S)-2,6-dioxopiperidin-3-yl]-4-fluoro-1-oxo-2,3-dihydro-1H-isoindol-5-yl}-2-methylpiperidin-1-yl]cyclobutoxy]piperidin-1-yl}pyrimidin-4-yl)amino]-2-oxo-1-(propan-2-yl)-1,2-dihydroquinolin-3-yl}oxy)-N-methylacetamide]	–	–	50 to 70	< 10
CNC(=O)COc1cc2cc(Nc3nc(N4CCC(F)(CN5CCC6(CC5)CCN(c5c(F)ccc7c5CN(C5CCC(=O)NC5=O)C7=O)CC6)CC4)ncc3Cl)ccc2n(C(C)C)c1=O (stereo not shown) [Compound 151, 2-{[6-({5-chloro-2-[4-({9-[2-(2,6-dioxopiperidin-3-yl)-5-fluoro-1-oxo-2,3-dihydro-1H-isoindol-4-yl]-3,9-diazaspiro[5.5]undecan-3-yl}methyl)-4-fluoropiperidin-1-yl]pyrimidin-4-yl}amino)-2-oxo-1-(propan-2-yl)-1,2-dihydroquinolin-3-yl]oxy}-N-methylacetamide]	< 10	50 to 70	–	–
CNC(=O)COc1cc2cc(Nc3cc(N4CCC(CN5CCC6(CC5)CN(c5ccc7c(c5)CN(C5CCC(=O)NC5=O)C7=O)C6)CC4)ncc3Cl)ccc2n(C(C)C)c1=O (stereo not shown) [Compound 321, 2-{[6-({5-chloro-2-[4-({2-[2-(2,6-dioxopiperidin-3-yl)-1-oxo-2,3-dihydro-1H-isoindol-5-yl]-2,7-diazaspiro[3.5]nonan-7-yl}methyl)piperidin-1-yl]pyridin-4-yl}amino)-2-oxo-1-(propan-2-yl)-1,2-dihydroquinolin-3-yl]oxy}-N-methylacetamide]	–	–	50 to 70	< 10
CNC(=O)COc1cc2cc(Nc3cc(N4CCC(O[C@H]5C[C@H](N6CCC(c7ccc8c(c7F)CN(C7CCC(=O)NC7=O)C8=O)CC6)C5)CC4)ncc3Cl)ccc2n(C(C)C)c1=O (stereo partly shown) [Compound 258, 2-({6-[(5-chloro-2-{4-[(1r,3r)-3-{4-[2-(2,6-dioxopiperidin-3-yl)-4-fluoro-1-oxo-2,3-dihydro-1H-isoindol-5-yl]piperidin-1-yl}cyclobutoxy]piperidin-1-yl}pyridin-4-yl)amino]-2-oxo-1-(propan-2-yl)-1,2-dihydroquinolin-3-yl}oxy)-N-methylacetamide]	–	–	50 to 70	< 10
CNC(=O)COc1cc2cc(Nc3nc(N4CCC(OC5CCC6(CC5)CN(c5c(OC)ccc7c5CN(C5CCC(=O)NC5=O)C7=O)C6)CC4)ncc3Cl)ccc2n(C(C)C)c1=O (stereo not shown) [Compound 300, 2-{[6-({5-chloro-2-[4-({2-[2-(2,6-dioxopiperidin-3-yl)-5-methoxy-1-oxo-2,3-dihydro-1H-isoindol-4-yl]-2-azaspiro[3.5]nonan-7-yl}oxy)piperidin-1-yl]pyrimidin-4-yl}amino)-2-oxo-1-(propan-2-yl)-1,2-dihydroquinolin-3-yl]oxy}-N-methylacetamide]	–	–	50 to 70	< 10

Now from value to molecule, other results behind:

DC50 [1] [nM]	Dmax [1] [%]	SMILES	Dmax (T47D) [%]	DC50 [nM]
< 10	50 to 70	CNC(=O)COc1cc2cc(Nc3nc(N4CCC(O[C@H]5CC[C@H](N(C)C6CN(c7ccc8c(c7)C(=O)N(C7CCC(=O)NC7=O)C8=O)C6)CC5)CC4)ncc3Cl)ccc2n(C(C)C)c1=O (stereo partly shown) [Compound 107, 2-[(6-{[5-chloro-2-(4-{[(1r,4r)-4-({1-[2-(2,6-dioxopiperidin-3-yl)-1,3-dioxo-2,3-dihydro-1H-isoindol-5-yl]azetidin-3-yl}(methyl)amino)cyclohexyl]oxy}piperidin-1-yl)pyrimidin-4-yl]amino}-2-oxo-1-(propan-2-yl)-1,2-dihydroquinolin-3-yl)oxy]-N-methylacetamide]	–	–
< 10	50 to 70	CNC(=O)COc1cc2cc(Nc3nc(N4CCC(C(C)(C)N5CCC6(CC5)CN(c5ccc7c(c5)C(=O)N(C5CCC(=O)NC5=O)C7=O)C6)CC4)ncc3Cl)ccc2n(C(C)C)c1=O (stereo not shown) [Compound 45]	–	–
< 10	50 to 70	CNC(=O)COc1cc2cc(Nc3nc(N4CCN(CC5(F)CCN(c6ccc7c(c6)CN(C6CCC(=O)NC6=O)C7=O)CC5)CC4)ncc3Cl)ccc2n(C(C)C)c1=O (stereo not shown) [Compound 113, 2-{[6-({5-chloro-2-[4-({1-[2-(2,6-dioxopiperidin-3-yl)-1-oxo-3H-isoindol-5-yl]-4-fluoropiperidin-4-yl}methyl)piperazin-1-yl]pyrimidin-4-yl}amino)-1-isopropyl-2-oxoquinolin-3-yl]oxy}-N-methylacetamide]	–	–
< 10	50 to 70	CNC(=O)COc1cc2cc(Nc3nc(N4CCC(CN5CCC6(CC5)CN(c5ccc7c(c5)C(=O)N(C5CCC(=O)NC5=O)C7=O)C6(C)C)CC4)ncc3Cl)ccc2n(C(C)C)c1=O (stereo not shown) [Compound 133, 2-{[6-({5-chloro-2-[4-({2-[2-(2,6-dioxopiperidin-3-yl)-1,3-dioxo-2,3-dihydro-1H-isoindol-5-yl]-1,1-dimethyl-2,7-diazaspiro[3.5]nonan-7-yl}methyl)piperidin-1-yl]pyrimidin-4-yl}amino)-2-oxo-1-(propan-2-yl)-1,2-dihydroquinolin-3-yl]oxy}-N-methylacetamide]	–	–
10 to 50	50 to 70	CNC(=O)COc1cc2cc(Nc3nc(N4CCC(O[C@H]5C[C@H](N6CC[C@H](c7ccc8c(c7)C(=O)N(C7CCC(=O)NC7=O)C8=O)[C@H](F)C6)C5)CC4)ncc3Cl)ccc2n(C(C)C)c1=O (mixture of isomers) [Compound 118]	–	–
< 10	< 50	CNC(=O)COc1cc2cc(Nc3nc(N4CCC(CN5CC6(CCN(c7ccc8c(c7)CN(C7CCC(=O)NC7=O)C8=O)C6)CC5=O)CC4)ncc3Cl)ccc2n(C(C)C)c1=O (stereo not shown) [Compound 54, 2-{[6-({5-chloro-2-[4-({7-[2-(2,6-dioxopiperidin-3-yl)-1-oxo-2,3-dihydro-1H-isoindol-5-yl]-3-oxo-2,7-diazaspiro[4.4]nonan-2-yl}methyl)piperidin-1-yl]pyrimidin-4-yl}amino)-2-oxo-1-(propan-2-yl)-1,2-dihydroquinolin-3-yl]oxy}-N-methylacetamide]	–	–
